Experimental data from patent EP0476120B1, “PROCESS FOR PREPARING EQUIMOLAR SALTS OF ASPARTIC ACID AND MAGNESIUM, MAGNESIUM ASPARTATE SALT OBTAINED BY SAID PROCESS AND ITS APPLICATIONS” (LA[…] SPINDLER, priority 1990, dated 1991).
Like-named read-outs stand apart in the source and are kept apart here.

How the values were obtained:
[1] = tested on: souris; conditions: mouse; for Nombre de passages (moyenne): 60 min before test, controls 5,5
Source text: Le test est pratiqué chez des souris NMRI-HAN soumises à une diète hydrique préalable de 18 heures et réparties en séries de 15.
L'appareillage utilisé consiste en une boite en plexiglas dont le sol est constitué de 4 plaques métalliques séparées les unes des autres. Un circuit d'alimentation permet d'établir une différence de potentiel entre deux plaques adjacentes grâce à un contacteur. Le test est pratiqué en plaçant doucement une souris sur une des plaques du fond de l'appareil ; les plaques sont électrifiées chaque fois que la souris passe de l'une à l'autre, de telle sorte qu'elle reçoit alors un choc électrique au niveau des pattes. Les paramètres du choc sont les suivants : durée de l'impulsion électrique égale à 0,5 seconde ; intensité égale à 0,6 milliampères. Ce choc induit chez les animaux une réaction motrice évidente de fuite, la souris traversant souvent 2 à 3 plaques successivement. Les conditions expérimentales adoptées ont été les suivantes : exploration libre pendant 15 secondes, traversée punie pendant la minute suivante, les résultats étant exprimés en nombre de passages "punis" pendant cette minute. Soixante souris ont été réparties de la façon suivante :
Les administrations ont été réalisées par voie intra-gastrique, à partir de solutions aqueuses, sous un volume constant de 20 ml.kg⁻¹, 60 minutes avant le début du test. Les animaux contrôles ont reçu un même volume d'eau distillée.
Les administrations ont été réalisées par voie intra-gastrique, à partir de solutions aqueuses, sous un volume constant de 20 ml.kg⁻¹ par produit 60 minutes avant le début du test. Les animaux contrôles ont reçu un même volume d'eau distillée.
Dans un premier temps a été calculée la DA 50 (dose anxiolytique 50) du Diazépam (Valium® 10 mg - Roche, ampoule 2ml) seul, administré à des doses suivant une progression géométrique de base 0,25 et de raison 2, soit respectivement 0,25, 0,5 l et 2 mg.kg⁻¹.
La DA 50 est déterminée à partir du pourcentage d'animaux tranquillisés. Est considéré comme tranquillisé tout animal dont le nombre de passages punis est égal ou supérieur à 9, c'est-à-dire à une valeur représentant une augmentation d'au moins 50 % par rapport au score moyen d'animaux non traités.
Toutes les administrations ont été réalisées par voie intra-gastrique à partir de solutions aqueuses, sous un volume constant de 20 ml.kg⁻¹ (eau distillée pour le groupe contrôle). […] La veille du test, les souris sont soumises à une diète hydrique de 18 heures. La dernière ingestion est pratiquée une heure avant l'étude, concomitamment avec le diazépam (Valium® 10 mg - Roche, ampoules de 2 ml).

[2] = tested on: singes cynomolggus (Macaca fascicularis); conditions: monkey
Source text: L'étude a été réalisée chez sept singes cynomolggus (Macaca fascicularis), de sexe mâle et femelle, pesant entre 2 et 5 kg.
Un mois avant le début de l'étude, sous anesthésie générale (kétamine + xylazine) huit électrodes (boules d'argent) ont été implantées dans la table osseuse, au niveau des aires frontale, centrale, pariétale et occipitale droites et gauche. L'électrocorticogramme a été enregistré sur un électroencéphalographe REEGA mini-huit (Alvar Electronic) en dérivations monopolaires par rapport à une référence commune.
Les enregistrements ont été réalisés sur des animaux habitués au siège à contention, en position assise, dans une pièce calme mais non insonorisée, en ambiance lumineuse tamisée.
Les huit dérivations EEG ont été analysées simultanément par un Neuromapper 1620 (Neuroscience) qui extrait du signal les transformées de Fourier ("Fast Fourier Transform" : FFT). En fait, 90 échantillons de 2 secondes, soit 3 minutes de tracé exempt d'artefact, ont été analysés. Les données recueillies correspondent à l'amplitude (»V) de chacune des 5 bandes de fréquence EEG classiques selon les bornes suivantes : delta de 0 à 4 Hz ; thêta de 7 à 8 Hz ; alpha de 8 à 13 Hz, bêta₁ de 13 à 20 Hz ; bêta₂ de 20 à 30 Hz.
Pour chacune de ces bandes ont ensuite été calculées : • Les puissances absolues en »V² • les puissances relatives (%), c'est-à-dire la puissance de chacune des bandes de fréquence rapportée à la puissance totale du spectre (power) • la "SEF 95 % (Spectral Edge Frequency 95 %) qui est la fréquence en deçà de laquelle se situent 95 % de la puissance totale du spectre, • le rapport entre fréquences rapides et fréquences lentes : alpha+ bêta/delta + thêta ( α+β/δ+ϑ [formula] )
La dernière ingestion a précédé de 1 heure la seconde administration de diazépam.
Le diazépam (ampoules injectables - Valium® 10 - Roche) a été administré par voie orale, en solution aqueuse, sous un volume de 10 ml/singe, à des doses comprises entre 0,5 mg.kg⁻¹ et 4 mg.kg⁻¹ (doses différentes du fait d'une sensibilité individuelle propre à chaque sujet).
100 (le seuil de probabilité statistique choisi peut paraître élevé ; il est en rapport avec le faible nombre de sujets : n=7). L'ensemble de l'analyse statistique a été obtenu grâce au programme statistique SPSS/PC⁺ (SPSS Inc., Chicago)

## CN1C(=O)CN=C(c2ccccc2)c2cc(Cl)ccc21 [Diazépam, reference compound]
[1]; Valium alone 0,5 mg.kg⁻¹ P.O.
  Nombre de passages (moyenne): 7,7
[1]; Valium alone 0,25 mg.kg⁻¹ P.O.
  Nombre de passages (moyenne): 7,3
[1]; Valium alone 1 mg.kg⁻¹ P.O.
  Nombre de passages (moyenne): 9,5
[1]; Valium alone 2 mg.kg⁻¹ P.O.
  Nombre de passages (moyenne): 10,6
[1]; diazepam alone P.O., from % tranquillised animals (>= 9 punished crossings)
  DA 50 (dose anxiolytique 50): 0,76 mg.kg⁻¹
[2]; diazepam alone 0,5-4 mg.kg⁻¹ P.O.
  durée de l'action: jusqu'à la 5ème heure
[2]; diazepam alone 0,5-4 mg.kg⁻¹ P.O., figure 4
  valeurs du rapport α+β/δ+ϑ: augmentation durable
[2]; diazepam alone 0,5-4 mg.kg⁻¹ P.O., time after ingestion
  acmé de l'effet: 45 minutes à une heure
[2]; diazepam alone 0,5-4 mg.kg⁻¹ orally, at peak effect one hour after ingestion, reference 20 %
  proportion relative de la bande β₂: 27%
[2]; diazepam alone (first test), figure 3
  "SEF 95 %": temps du maximum: 30 min
